In patent publication US9125904B1, “Biphenyl imidazoles and related compounds useful for treating HCV infections” (ACHILLION PHARMACEUTICALS, INC., priority 2010, dated 2015):
Where two headings read alike, the source gives them in different places.

System: HCV replicon
Test: HCV replicon replication assay (NPT ELISA)
Assay type: cell-based
Conditions: Hepatitis C virus
Protocol: Compounds claimed herein are tested for the ability to inhibit viral replication of the Hepatitis C replicon in cultured cells in which the HCV replicon construct has been incorporated. The HCV replicon system was described by Bartenschlager, et. al (Science, 285, pp. 110-113 (1999)). The replicon system is predictive of in vivo anti-HCV activity; compounds that are active in humans uniformly evidence activity in the replicon assay.
In this assay HCV replicon containing cells are treated with different concentrations of the test compound to ascertain the ability of the test compound to suppress replication of the HCV replicon. As a positive control, HCV replicon-containing cells are treated with different concentrations of interferon alpha, a known inhibitor of HCV replication. The replicon assay system includes Neomycin Phosphotransferase (NPT) as a component of the replicon itself in order to detect the transcription of replicon gene products in the host cell. Cells in which the HCV replicon is actively replicating have high levels of NPT; the level of NPT is proportional to HCV replication. […] The NPT level of each sample is measured using a captured ELISA.
A protocol for testing compounds for the ability to inhibit viral replication of the Hepatitis C replicon cultured cells in which the replicon construct has been incorporated, follows.
The HCV replicon contains, 5′-3′, the HCV-IRES, the neomycin phosphotransferase (neo) gene, the IRES of encephalomyocarditis virus, which directs translation of HCV sequences NS3 to NS5B, and the 3′-NTR. The sequence of the HCV replicon has been deposited in GenBank (Accession no. AJ242652).
The replicon is transfected into Huh-7 cells using standard methods such as electroporation.
The equipment and materials include, but are not limited to, Huh-7 HCV replicon-containing cells, maintenance media (DMEM (Dulbecco's modified Eagle media) supplemented with 10% FBS, L-glutamine, non-essential amino acids, penicillin (100 units/ml), streptomycin (100 micrograms/ml), and 500 micrograms/ml of Geneticin (G418), screening media (DMEM supplemented with 10% FBS, L-glutamine, non-essential amino acids, penicillin (100 units/ml) and streptomycin (100 micrograms/ml)), 96 well tissue culture plates (flat bottom), 96 well plates (U bottom for drug dilution), Interferon alpha for positive control, fixation reagent (such as methanol: acetone), primary antibody (rabbit anti-NPTII), secondary antibody: Eu-N1 1, and enhancement solution.
HCV replicon-containing cells support high levels of viral RNA replicon replication when their density is suitable. Over-confluency causes decreased viral RNA replication. Therefore, cells must be kept growing in log phase in the presence of 500 micrograms/ml of G418. Generally, cells should be passed twice a week at 1: 4-6 dilution. Cell maintenance is conducted as follows:
HCV replicon-containing cells are examined under a microscope to ensure that cells growing well. Cells are rinsed once with PBS and 2 ml trypsin is added. The cell/trypsin mixture is incubated at 37° C. in a CO2 incubator for 3-5 minutes. After incubation 10 ml of complete media is added to stop the trypsinization reaction. Cells are blown gently, put into a 15 ml tube, and spun at 1200 rpm for 4 minutes. The trypsin/medium solution is removed. Medium (5 ml) is added and the cells are mixed carefully. The cells are counted.
The cells are then seeded onto 96-well plates at a density of 6000-7500 cells/100 microliters/well (6−7.5×10^5 cells/10 ml/plate). The plates are then incubated at 37° C. in a 5% CO2 incubator.
Cells are examined under a microscope approximated 24 hours after seeding and prior to adding drugs. If counting and dilution were performed correctly, cells are 60-70% confluent and nearly all cells should attach and spread evenly in the well.
HCV replicon-containing cells are rinsed with once PBS once; 2 mls of trypsin are then added. Cells are incubated at 37° C. in a 5% CO2 incubator for 3-5 minutes. […]

[1] = 72 h, Huh-7 HCV replicon-containing cells, three days, class symbols, read-out: EC50
[2] = 72 h, Huh-7 HCV replicon-containing cells, three days, numeric cells, read-out: EC50

Row | SMILES | EC50 [1] | further results
1 | CCCS(=O)(=O)N1CCN(Cc2ccc(NC(=O)c3ccc(-c4ccc(C(=O)Nc5ccc(CN6CCN(S(=O)(=O)CCC)CC6)cc5)cc4)cc3)cc2)CC1 [Compound 17, N4,N4′-bis(4-((4-(propylsulfonyl)piperazin-1-yl)methyl)phenyl)biphenyl-4,4′-dicarboxamide] | < 50 nM | –
2 | CCCS(=O)(=O)N1CCN(Cc2ccc(NC(=O)c3ccc(-c4ccc(-c5c[nH]c([C@@H]6CCCN6C(=O)OC(C)(C)C)n5)cc4)cc3)cc2)CC1 [Compound 18, (S)-tert-butyl 2-(4-(4′-(4-((4-(propylsulfonyl)piperazin-1-yl)methyl)phenylcarbamoyl)biphenyl-4-yl)-1H-imidazol-2-yl)pyrrolidine-1-carboxylate] | < 50 nM | –
3 | CCCS(=O)(=O)N1CCN(Cc2ccc(NC(=O)c3ccc(-c4ccc(-c5c[nH]c([C@@H]6CCCN6C(=O)[C@@H](NC(=O)OC)C(C)C)n5)cc4)cc3)cc2)CC1 [Compound 19, methyl (S)-3-methyl-1-oxo-1-((S)-2-(4-(4′-(4-((4-(propylsulfonyl)piperazin-1-yl)methyl)phenylcarbamoyl)biphenyl-4-yl)-1H-imidazol-2-yl)pyrrolidin-1-yl)butan-2-ylcarbamate] | < 50 nM | –
4 | CC(C)(C)OC(=O)N1CC=CC1c1nc(-c2ccc(-c3ccc(-c4c[nH]c([C@@H]5C=CCN5C(=O)OC(C)(C)C)n4)cc3)cc2)c[nH]1 (stereo partly drawn) [Compound 20, (2R,2′R)-tert-butyl 2,2′-(4,4′-(biphenyl-4,4′-diyl)bis(1H-imidazole-4,2-diyl))bis(2,5-dihydro-1H-pyrrole-1-carboxylate)] | < 100 nM | –
5 | COC(=O)N[C@H](C(=O)N1CC=CC1c1nc(-c2ccc(-c3ccc(-c4c[nH]c([C@@H]5C=CCN5C(=O)[C@@H](NC(=O)OC)C(C)C)n4)cc3)cc2)c[nH]1)C(C)C (stereo partly drawn) [Compound 21, dimethyl (2S,2′S)-1,1′-((2R,2′R)-2,2′-(4,4′-(biphenyl-4,4′-diyl)bis(1H-imidazole-4,2-diyl))bis(1H-pyrrole-2,1(2H,5H)-diyl))bis(3-methyl-1-oxobutane-2,1-diyl)dicarbamate] | < 5 nM | –
6 | CCCS(=O)(=O)N1CCN(Cc2ccc(C(=O)Nc3ccc(-c4ccc(-c5c[nH]c([C@@H]6CCCN6C(=O)[C@@H](NC(=O)OC)C(C)C)n5)cc4)cc3)cc2)CC1 [Compound 22, methyl (S)-3-methyl-1-oxo-1-((S)-2-(4-(4′-(4-((4-(propylsulfonyl)piperazin-1-yl)methyl)benzamido)biphenyl-4-yl)-1H-imidazol-2-yl)pyrrolidin-1-yl)butan-2-ylcarbamate] | < 5 nM | –
7 | CNC(=O)C[C@H](C(=O)N1CCC[C@H]1c1ncc(-c2ccc(-c3cnc([C@@H]4CCCN4C(=O)[C@@H](CC(=O)NC)C(C)(C)C)[nH]3)cc2)[nH]1)C(C)(C)C [Compound 23, (3S,3′S)-3,3′-(2S,2′S)-2,2′-(5,5′-(1,4-phenylene)bis(1H-imidazole-5,2-diyl))bis(pyrrolidine-2,1-diyl)bis(oxomethylene)bis(N,4,4-trimethylpentanamide)] | < 50 nM | –
8 | COC(=O)N[C@H](C(=O)N1C2CCC(C2)[C@H]1c1nc(-c2ccc(-c3ccc(-c4c[nH]c([C@@H]5C6CCC(C6)N5C(=O)[C@@H](NC(=O)OC)C(C)C)n4)cc3)cc2)c[nH]1)C(C)C [Compound 24, dimethyl (2S,2′S)-1,1′-((3S,3′S)-3,3′-(4,4′-(biphenyl-4,4'-diyl)bis(1H-imidazole-4,2-diyl))bis(2-azabicyclo[2.2.1]heptane-3,2-diyl))bis(3-methyl-1-oxobutane-2,1-diyl)dicarbamate] | < 5 nM | –
9 | COC(=O)NC(C(=O)N1c2ccccc2C[C@H]1c1nc(-c2ccc(-c3ccc(-c4cnc([C@@H]5Cc6ccccc6N5C(=O)C(NC(=O)OC)C(C)C)[nH]4)cc3)cc2)c[nH]1)C(C)C (stereo partly drawn) [Compound 25, dimethyl (2R,2′R)-1,1′-((2S,2′S)-2,2′-(5,5′-(biphenyl-4,4′-diyl)bis(1H-imidazole-5,2-diyl))bis(indoline-2,1-diyl))bis(3-methyl-1-oxobutane-2,1-diyl)dicarbamate] | < 5 nM | EC50 (Huh-7): ≤ 10000 nM
10 | COC(=O)N[C@@H](C(=O)N1c2ccccc2C[C@H]1c1nc(-c2ccc(-c3ccc(-c4cnc([C@@H]5Cc6ccccc6N5)[nH]4)cc3)cc2)c[nH]1)C(C)C [Compound 26, methyl (R)-1-((S)-2-(4-(4′-(2-((S)-indolin-2-yl)-1H-imidazol-5-yl)biphenyl-4-yl)-1H-imidazol-2-yl)indolin-1-yl)-3-methyl-1-oxobutan-2-ylcarbamate] | < 5 nM | –
11 | CC(C)(C)OC(=O)N1c2ccccc2C[C@H]1c1nc(-c2ccc(-c3ccc(-c4cnc([C@@H]5Cc6ccccc6N5C(=O)OC(C)(C)C)[nH]4)cc3)cc2)c[nH]1 [Compound 27, (2S,2′S)-tert-butyl 2,2′-(5,5′-(biphenyl-4,4′-diyl)bis(1H-imidazole-5,2-diyl))diindoline-1-carboxylate] | < 50 nM | –
12 | CC(=O)N[C@H](C(=O)N1CC=CC1c1nc(-c2ccc(-c3ccc(-c4c[nH]c(C5C=CCN5C(=O)[C@@H](NC(C)=O)C(C)C)n4)cc3)cc2)c[nH]1)C(C)C (stereo partly drawn) [Compound 28, N,N′-(2S,2′S)-1,1′-((2R,2′R)-2,2′-(4,4′-(biphenyl-4,4′-diyl)bis(1H-imidazole-4,2-diyl))bis(1H-pyrrole-2,1(2H,5H)-diyl))bis(3-methyl-1-oxobutane-2,1-diyl)diacetamide] | < 50 nM | –
13 | CCS(=O)(=O)N[C@H](C(=O)N1C2CCC(C2)[C@H]1c1nc(-c2ccc(-c3ccc(-c4c[nH]c([C@@H]5C6CCC(C6)N5C(=O)[C@@H](NS(=O)(=O)CC)C(C)C)n4)cc3)cc2)c[nH]1)C(C)C [Compound 33, N,N′-(2S,2′S)-1,1′-((3S,3′S)-3,3′-(4,4′-(biphenyl-4,4′-diyl)bis(1H-imidazole-4,2-diyl))bis(2-azabicyclo[2.2.1]heptane-3,2-diyl))bis(3-methyl-1-oxobutane-2,1-diyl)diethanesulfonamide] | < 5 nM | EC50 (Huh-7): ≤ 10000 nM
14 | COC(=O)NC(C(=O)N1CCC[C@H]1c1ncc(-c2ccc(-c3ccc(-c4c[nH]c([C@@H]5Cc6ccccc6N5C(=O)C(NC(=O)OC)C(C)C)n4)cc3)cc2)[nH]1)C(C)C (stereo partly shown) [Compound 35] | < 5 nM | –
15 | COC(=O)N[C@H](C(=O)N1CCC[C@H]1c1ncc(-c2ccc(-c3ccc(-c4c[nH]c([C@@H]5C6CCC(C6)N5C(=O)[C@@H](NC(=O)OC)C(C)C)n4)cc3)cc2)[nH]1)C(C)C (stereo partly shown) [Compound 36] | < 50 nM | –
16 | CNC(=O)C[C@H](C(=O)N1CCC[C@H]1c1ncc(-c2ccc3c(c2)Cc2cc(-c4cnc([C@@H]5CCCN5C(=O)[C@@H](CC(=O)NC)C(C)(C)C)[nH]4)ccc2-3)[nH]1)C(C)(C)C [Compound 37, (3S,3′S)-3,3′-(2S,2′S)-2,2′-(5,5′-(9H-fluorene-2,7-diyl)bis(1H-imidazole-5,2-diyl))bis(pyrrolidine-2,1-diyl)bis(oxomethylene)bis(N,4,4-trimethylpentanamide)] | – | EC50 (Huh-7, 72 h): > 1 nM
17 | CNC(=O)C[C@H](C(=O)N1C2CCC(C2)[C@H]1c1nc(-c2ccc(-c3ccc(-c4cnc([C@@H]5C6CCC(C6)N5C(=O)[C@@H](CC(=O)NC)C(C)C)[nH]4)cc3)cc2)c[nH]1)C(C)C (stereo partly drawn) [Compound 38, (3S,3′S)-3,3′-(3S,3′S)-3,3′-(4,4′-(biphenyl-4,4′-diyl)bis(1H-imidazole-4,2-diyl))bis(2-azabicyclo[2.2.1]heptane-3,2-diyl)bis(oxomethylene)bis(N,4-dimethylpentanamide)] | – | EC50 [2]: > 1 nM; EC50 (Huh-7): ≤ 10000 nM
18 | COC(=O)N[C@H](C(=O)N1CCC[C@H]1c1cnc(-c2ccc(-c3ccc(NC(=O)[C@H]4CCCCN4C(=O)[C@H](NC(=O)OC(C)(C)C)c4ccccc4)cc3)cc2)[nH]1)C(C)C [Compound 39] | – | EC50 [2]: > 1 nM; EC50 (Huh-7): ≤ 10000 nM
